This passage reports Emax and EC50 results from patent US6936585B2, “Corticotropin releasing factor 2 receptor agonists” (priority 2002, dated 2005).

In one test the target is T1, CRF2R (Homo sapiens, UniProt Q13324).
T1 sequence (Q13324 1-411): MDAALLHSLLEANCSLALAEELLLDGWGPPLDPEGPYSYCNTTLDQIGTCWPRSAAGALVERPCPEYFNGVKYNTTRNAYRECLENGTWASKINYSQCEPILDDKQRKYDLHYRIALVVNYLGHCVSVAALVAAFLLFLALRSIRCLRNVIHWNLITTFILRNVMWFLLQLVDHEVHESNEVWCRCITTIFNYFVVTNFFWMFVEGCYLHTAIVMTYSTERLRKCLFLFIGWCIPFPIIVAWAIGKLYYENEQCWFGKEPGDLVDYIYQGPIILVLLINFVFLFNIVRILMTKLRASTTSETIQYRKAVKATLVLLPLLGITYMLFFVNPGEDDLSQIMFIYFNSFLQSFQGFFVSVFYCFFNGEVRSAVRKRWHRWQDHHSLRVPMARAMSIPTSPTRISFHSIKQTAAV
The test is described as follows: CRF2R agonist activation (EC50 / Emax), called comparative CRF binding. The format is cell-based. Particulars: for Emax: read-out: CRF2R Emax; for EC50: read-out: CRF2R EC50. Summed up: (§1)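 Receptor-expressing cells are contacted with test peptide or the vehicle it is dissolved in. Lysates are then assayed for cAMP, or expression of a CRE-coupled reporter is quantitated. Engineered cells carrying receptor-G-protein fusions may replace full-length receptors.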

Another test has as its target T2, CRF1R (Homo sapiens, UniProt P34998).
T2 sequence (P34998 24-415): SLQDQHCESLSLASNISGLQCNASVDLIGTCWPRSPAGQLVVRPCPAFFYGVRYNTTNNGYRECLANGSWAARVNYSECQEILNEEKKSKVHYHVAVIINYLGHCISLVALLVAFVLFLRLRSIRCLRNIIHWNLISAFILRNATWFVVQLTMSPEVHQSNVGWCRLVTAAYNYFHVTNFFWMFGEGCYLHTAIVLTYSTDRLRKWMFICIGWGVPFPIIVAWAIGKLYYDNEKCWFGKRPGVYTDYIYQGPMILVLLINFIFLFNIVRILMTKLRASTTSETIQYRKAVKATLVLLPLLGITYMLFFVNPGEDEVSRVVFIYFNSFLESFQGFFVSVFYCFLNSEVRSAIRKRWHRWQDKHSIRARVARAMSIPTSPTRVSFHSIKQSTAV
In words: CRF1R agonist activation (EC50 / Emax), called comparative CRF binding. To be noted: for Emax: read-out: CRF1R Emax; for EC50: read-out: CRF1R EC50. In kind it is cell-based. The gist of the method:
as §1

Peptide text beside a SMILES is read from it.

What is called Emax is the greatest response seen or fitted, relative to the assay's reference. With `CC[C@H](C)[C@H](NC(=O)[C@H](C)NC(=O)[C@H](CC(N)=O)NC(=O)[C@H](CCC(N)=O)NC(=O)[C@H](CCC(=O)O)NC(=O)[C@H](C)NC(=O)[C@H](CCCNC(=N)N)NC(=O)[C@H](CCC(=O)O)NC(=O)[C@H](CCCNC(=N)N)NC(=O)[C@H](CCC(N)=O)NC(=O)[C@H](CO)NC(=O)[C@H](CCC(N)=O)NC(=O)[C@@H](NC(=O)[C@H](CCCCN)NC(=O)[C@H](CCC(=O)O)NC(=O)[C@H](CC(C)C)NC(=O)[C@H](CCC(=O)O)NC(=O)[C@H](CC(C)C)NC(=O)[C@H](CC(C)C)NC(=O)[C@@H](NC(=O)[C@H](CCCNC(=N)N)NC(=O)[C@H](CC(C)C)NC(=O)[C@H](CC(C)C)NC(=O)[C@H](CC(C)C)NC(=O)[C@H](CC(C)C)NC(=O)[C@@H]1CCCN1C(=O)[C@H](CC(C)C)NC(=O)[C@H](CC(=O)O)NC(=O)[C@@H](NC(=O)[C@H](CO)NC(=O)[C@H](CC(C)C)NC(=O)[C@H](CO)NC(=O)[C@@H]1CCCN1C(=O)[C@H](CC(N)=O)NC(=O)[C@@H](N)CC(=O)O)[C@@H](C)CC)[C@@H](C)O)[C@@H](C)O)C(=O)N[C@H](C(=O)N[C@@H](Cc1ccccc1)C(=O)N[C@@H](C)C(=O)N[C@@H](CO)C(=O)N[C@H](C(N)=O)C(C)C)[C@@H](C)CC` [compound 346] (H-DNPSLSIDLPLLLLRTLLELEKTQSQRERAEQNAIIFASV-NH2; N-terminus assumed), the maximal effect (Emax) at CRF2R was 97.8%; at CRF1R it was 59%.
For `CC[C@H](C)[C@H](N)C(=O)N[C@H](C(=O)N[C@@H](CC(C)C)C(=O)N[C@@H](CO)C(=O)N[C@@H](CC(C)C)C(=O)N[C@@H](CC(=O)O)C(=O)N[C@H](C(=O)N1CCC[C@H]1C(=O)N[C@H](C(=O)NCC(=O)N[C@@H](CC(C)C)C(=O)N[C@@H](CC(C)C)C(=O)N[C@@H](CCC(N)=O)C(=O)N[C@H](C(=O)N[C@@H](CC(C)C)C(=O)N[C@@H](CC(C)C)C(=O)N[C@@H](CCC(=O)O)C(=O)N[C@@H](CCCCN)C(=O)N[C@@H](C)C(=O)N[C@@H](C)C(=O)N[C@@H](C)C(=O)N[C@@H](CCC(=O)O)C(=O)N[C@@H](C)C(=O)N[C@@H](CCC(=O)O)C(=O)N[C@@H](C)C(=O)N[C@@H](C)C(=O)N[C@@H](C)C(=O)N[C@@H](CCCCN)C(=O)N[C@@H](C)C(=O)N[C@@H](C)C(=O)N[C@@H](CCC(N)=O)C(=O)N[C@@H](CCC(=O)O)C(=O)N[C@@H](CCC(N)=O)C(=O)N[C@H](C(=O)N[C@@H](CC(C)C)C(=O)N[C@@H](C)C(=O)N[C@@H](Cc1c[nH]cn1)C(=O)N[C@H](C(N)=O)C(C)C)[C@@H](C)CC)[C@@H](C)CC)[C@@H](C)CC)C(C)C)C(C)C` [compound 366] (H-IVLSLDVPIGLLQILLEKAAAEAEAAAKAAQEQILAHV-NH2), in that order: 46% and 9%.
As usually defined, the EC50 is the concentration needed to bring the measured effect to its halfway point. `CC[C@H](C)[C@H](N)C(=O)N[C@H](C(=O)N[C@@H](CC(C)C)C(=O)N[C@@H](CO)C(=O)N[C@@H](CC(C)C)C(=O)N[C@@H](CC(=O)O)C(=O)N[C@H](C(=O)N1CCC[C@H]1C(=O)N[C@H](C(=O)NCC(=O)N[C@@H](CC(C)C)C(=O)N[C@@H](CC(C)C)C(=O)N[C@@H](CCC(N)=O)C(=O)N[C@H](C(=O)N[C@@H](CC(C)C)C(=O)N[C@@H](CC(C)C)C(=O)N[C@@H](CCC(=O)O)C(=O)N[C@@H](CCC(N)=O)C(=O)N[C@@H](C)C(=O)N[C@@H](CCCNC(=N)N)C(=O)N[C@@H](Cc1c[nH]cn1)C(=O)N[C@@H](C)C(=O)N[C@@H](C)C(=O)N[C@@H](C)C(=O)N[C@@H](Cc1c[nH]cn1)C(=O)N[C@@H](C)C(=O)N[C@@H](C)C(=O)N[C@@H](C)C(=O)N[C@@H](Cc1c[nH]cn1)C(=O)N[C@@H](C)C(=O)N[C@@H](CCC(N)=O)C(=O)N[C@@H](C)C(=O)N[C@@H](Cc1c[nH]cn1)C(=O)N[C@H](C(=O)N[C@@H](CC(C)C)C(=O)N[C@@H](C)C(=O)N[C@@H](Cc1c[nH]cn1)C(=O)N[C@H](C(N)=O)C(C)C)[C@@H](C)CC)[C@@H](C)CC)[C@@H](C)CC)C(C)C)C(C)C` [compound 367] (H-IVLSLDVPIGLLQILLEQARHAAAHAAAHAQAHILAHV-NH2): on CRF2R, the concentration for a half-maximal effect (EC50) was at least 100 nM and the maximal response (Emax) stood at 18%. For the same compound, at CRF1R, the concentration for a half-maximal effect (EC50) was at least 1000 nM and the Emax was found to be 6%.
On to `CC[C@H](C)[C@H](N)C(=O)N[C@H](C(=O)N[C@@H](CC(C)C)C(=O)N[C@@H](CO)C(=O)N[C@@H](CC(C)C)C(=O)N[C@@H](CC(=O)O)C(=O)N[C@H](C(=O)N1CCC[C@H]1C(=O)N[C@H](C(=O)NCC(=O)N[C@@H](CC(C)C)C(=O)N[C@@H](CC(C)C)C(=O)N[C@@H](CCC(N)=O)C(=O)N[C@H](C(=O)N[C@@H](CC(C)C)C(=O)N[C@@H](CC(C)C)C(=O)N[C@@H](CCC(=O)O)C(=O)N[C@@H](CCC(N)=O)C(=O)N[C@@H](C)C(=O)N[C@@H](CCCNC(=N)N)C(=O)N[C@@H](Cc1c[nH]cn1)C(=O)N[C@@H](C)C(=O)N[C@@H](Cc1c[nH]cn1)C(=O)N[C@@H](C)C(=O)N[C@@H](Cc1c[nH]cn1)C(=O)N[C@@H](C)C(=O)N[C@@H](Cc1c[nH]cn1)C(=O)N[C@@H](C)C(=O)N[C@@H](Cc1c[nH]cn1)C(=O)N[C@@H](C)C(=O)N[C@@H](CCC(N)=O)C(=O)N[C@@H](C)C(=O)N[C@@H](Cc1c[nH]cn1)C(=O)N[C@H](C(=O)N[C@@H](CC(C)C)C(=O)N[C@@H](C)C(=O)N[C@@H](Cc1c[nH]cn1)C(=O)N[C@H](C(N)=O)C(C)C)[C@@H](C)CC)[C@@H](C)CC)[C@@H](C)CC)C(C)C)C(C)C` [compound 369] (H-IVLSLDVPIGLLQILLEQARHAHAHAHAHAQAHILAHV-NH2), for which the results for the Emax on CRF2R and on CRF1R were 18% and 4%, respectively.
For `CC[C@H](C)[C@H](N)C(=O)N[C@H](C(=O)N[C@@H](CC(C)C)C(=O)N[C@@H](CO)C(=O)N[C@@H](CC(C)C)C(=O)N[C@@H](CC(=O)O)C(=O)N[C@H](C(=O)N[C@@H](CO)C(=O)N[C@H](C(=O)NCC(=O)N[C@@H](CC(C)C)C(=O)N[C@@H](CC(C)C)C(=O)N[C@@H](CCC(N)=O)C(=O)N[C@H](C(=O)N[C@@H](CC(C)C)C(=O)N[C@@H](CC(C)C)C(=O)N[C@@H](CCC(=O)O)C(=O)N[C@@H](CCC(N)=O)C(=O)N[C@@H](C)C(=O)N[C@@H](CCCNC(=N)N)C(=O)N[C@@H](C)C(=O)N[C@@H](CCCNC(=N)N)C(=O)N[C@@H](C)C(=O)N[C@@H](C)C(=O)N[C@@H](CCCNC(=N)N)C(=O)N[C@@H](CCC(=O)O)C(=O)N[C@@H](CCC(N)=O)C(=O)N[C@@H](C)C(=O)N[C@H](C(=O)N[C@H](C(=O)N[C@@H](CC(N)=O)C(=O)N[C@@H](C)C(=O)N[C@@H](CCCNC(=N)N)C(=O)N[C@H](C(=O)N[C@@H](CC(C)C)C(=O)N[C@@H](C)C(=O)N[C@@H](CCCNC(=N)N)C(=O)N[C@H](C(N)=O)C(C)C)[C@@H](C)CC)[C@@H](C)O)[C@@H](C)O)[C@@H](C)CC)[C@@H](C)CC)C(C)C)C(C)C` [compound 370] (H-IVLSLDVSIGLLQILLEQARARAAREQATTNARILARV-NH2; N-terminus assumed), on CRF2R, the EC50 worked out at 51 nM and the Emax turned out to be 75%. For the same compound, on CRF1R, the concentration for a half-maximal effect (EC50) was at least 1000 nM and the Emax turned out to be 33%.
